In US20050004134A1, “Thiazole derivative and pharmaceutical use thereof” (priority 2001, published 2005):

melting point	SMILES
196.5 to 197.5 °C	CC(C)n1nc(-c2sc(C(=O)NCCN3CCOCC3)nc2-c2ccccc2)ccc1=O [Example 224, 5-(1-Isopropyl-6-oxo-1,6-dihydro-3-pyridazinyl)-N-[2-(4-morpholinyl)-ethyl]-4-phenyl-1,3-thiazole-2-carboxamide]
225 to 226 °C	CC(C)n1nc(-c2sc(C(=O)NC3CCCCC3)nc2-c2ccccc2)ccc1=O [Example 225, N-Cyclohexyl-5-(1-isopropyl-6-oxo-1,6-dihydro-3-pyridazinyl)-4-phenyl-1,3-thiazole-2-carboxamide]
169 to 170.5 °C	CC(C)n1nc(-c2sc(C(=O)N3CCCC3)nc2-c2ccccc2)ccc1=O [Example 226, 2-Isopropyl-6-[4-phenyl-2-(1-pyrrolidinylcarbonyl)-1,3-thiazol-5-yl]-3(2H)-pyridazinone]
161.5 to 162.5 °C	CC(C)n1nc(-c2sc(C(=O)N3CCOCC3)nc2-c2ccccc2)ccc1=O [Example 227, 2-Isopropyl-6-[2-(4-morpholinylcarbonyl)-4-phenyl-1,3-thiazol-5-yl]-3(2H)-pyridazinone]
155 to 156.5 °C	CC(C)n1nc(-c2sc(C(=O)N3CCN(C)CC3)nc2-c2ccccc2)ccc1=O [Example 228, 2-Isopropyl-6-{2-[(4-methyl-1-piperazinyl)carbonyl]-4-phenyl-1,3-thiazol-5-yl)-3(2H)-pyridazinone]
181 to 182 °C	CC(C)n1nc(-c2sc(C(=O)N3CCN(Cc4ccccc4)CC3)nc2-c2ccccc2)ccc1=O [Example 229, 6-{2-[(4-Benzyl-1-piperazinyl)carbonyl]-4-phenyl-1,3-thiazol-5-yl}-2-isopropyl-3(2H)-pyridazinone]
163.5 to 165 °C	CC(C)n1nc(-c2sc(C(=O)N3CCN(c4ccccc4)CC3)nc2-c2ccccc2)ccc1=O [Example 231, 2-isopropyl-6-(4-phenyl-2-[(4-phenyl-1-piperazinyl)carbonyl]-1,3-thiazol-5-yl}-3(2H)-pyridazinone]
144 to 147 °C	CC(C)n1nc(-c2sc(C(=O)NCCc3ccccn3)nc2-c2ccccc2)ccc1=O [Example 234, 5-(1-Isopropyl-6-oxo-1,6-dihydro-3-pyridazinyl)-4-phenyl-N-[2-(2-pyridinyl)ethyl]-1,3-thiazole-2-carboxamide]
155 to 157 °C	CC(C)n1nc(-c2sc(C(=O)NCc3ccncc3)nc2-c2ccc(F)cc2)ccc1=O [Example 236, 4-(4-Fluorophenyl)-5-(1-isopropyl-6-oxo-1,6-dihydro-3-pyridazinyl)-N-(4-pyridinylmethyl)-1,3-thiazole-2-carboxamide]
144 to 145 °C	CC(C)n1nc(-c2sc(C(=O)NCCc3ccccn3)nc2-c2ccc(F)cc2)ccc1=O [Example 237, 4-(4-Fluorophenyl)-5-(1-isopropyl-6-oxo-1,6-dihydro-3-pyridazinyl)-N-[2-(2-pyridinyl)ethyl]-1,3-thiazole-2-carboxamide]
164.5 to 166.5 °C	CONC(=O)c1nc(-c2ccc(F)cc2)c(-c2ccc(=O)n(C(C)C)n2)s1 [Example 238, 4-(4-fluorophenyl)-5-(1-isopropyl-6-oxo-1,6-dihydro-3-pyridazinyl)-N-methoxy-1,3-thiazole-2-carboxamide]
169 to 170.5 °C	CC(C)n1nc(-c2sc(C(=O)NN(C)C)nc2-c2ccc(F)cc2)ccc1=O [Example 239, 4-(4-Fluorophenyl)-5-(1-isopropyl-6-oxo-1,6-dihydro-3-pyridazinyl)-N′,N′-dimethyl-1,3-thiazole-2-carbohydrazide]
> 250 °C	CC(C)n1nc(-c2sc(C(N)=S)nc2-c2ccccc2)ccc1=O [Example 240, 5-(1-isopropyl-6-oxo-1,6-dihydro-3-pyridazinyl)-4-phenyl-1,3-thiazole-2-carbothioamide]

Second part, the compound before the results:

SMILES	melting point
Cn1nc(-c2sc(C(=O)NCc3ccccn3)nc2-c2ccccc2)ccc1=O [Example 201, 5-(1-methyl-6-oxo-1,6-dihydro-3-pyridazinyl)-4-phenyl-N-(2-pyridinylmethyl)-1,3-thiazole-2-carboxamide]	189 to 190.5 °C
CCn1nc(-c2sc(C(=O)NCc3ccccn3)nc2-c2ccccc2)ccc1=O [Example 202, 5-(1-Ethyl-6-oxo-1,6-dihydro-3-pyridazinyl)-4-phenyl-N-(2-pyridinylmethyl)-1,3-thiazole-2-carboxamide]	169 to 170.5 °C
CCCn1nc(-c2sc(C(=O)NCc3ccccn3)nc2-c2ccccc2)ccc1=O [Example 203, 5-(6-Oxo-1-propyl-1,6-dihydro-3-pyridazinyl)-4-phenyl-N-(2-pyridinylmethyl)-1,3-thiazole-2-carboxamide]	134 to 135.5 °C
C=CCn1nc(-c2sc(C(=O)NCc3ccccn3)nc2-c2ccccc2)ccc1=O [Example 204, 5-(1-Allyl-6-oxo-1,6-dihydro-3-pyridazinyl)-4-phenyl-N-(2-pyridinylmethyl)-1,3-thiazole-2-carboxamide]	117 to 118 °C
O=C(NCc1ccccn1)c1nc(-c2ccccc2)c(-c2ccc(=O)n(Cc3ccccc3)n2)s1 [Example 205, 5-(1-Benzyl-6-oxo-1,6-dihydro-3-pyridazinyl)-4-phenyl-N-(2-pyridinylmethyl)-1,3-thiazole-2-carboxamide]	172.5 to 173.5 °C
COCCn1nc(-c2sc(C(=O)NCc3ccccn3)nc2-c2ccccc2)ccc1=O [Example 206, 5-[1-(2-Methoxyethyl)-6-oxo-1,6-dihydro-3-pyridazinyl]-4-phenyl-N-(2-pyridinylmethyl)-1,3-thiazole-2-carboxamide]	168 to 169.5 °C
CC(C)n1nc(-c2sc(C(=O)NCc3ccccn3)nc2-c2ccccc2F)ccc1=O [Example 207, 4-(2-Fluorophenyl)-5-(1-isopropyl-6-oxo-1,6-dihydro-3-pyridazinyl)-N-(2-pyridinylmethyl)-1,3-thiazole-2-carboxamide]	190 to 191 °C
CC(C)n1nc(-c2sc(C(=O)NCc3ccccn3)nc2-c2cccc(F)c2)ccc1=O [Example 208, 4-(3-Fluorophenyl)-5-(1-isopropyl-6-oxo-1,6-dihydro-3-pyridazinyl)-N-(2-pyridinylmethyl)-1,3-thiazole-2-carboxamide]	188 to 189.5 °C
CC(C)n1nc(-c2sc(C(=O)NCc3ccccn3)nc2-c2cccc(Cl)c2)ccc1=O [Example 209, 4-(3-Chlorophenyl)-5-(1-isopropyl-6-oxo-1,6-dihydro-3-pyridazinyl)-N-(2-pyridinylmethyl)-1,3-thiazole-2-carboxamide]	168 to 169.5 °C
CC(C)n1nc(-c2sc(C(=O)NCc3ccccn3)nc2-c2ccccc2)ccc1=O [Example 210, 5-(1-isopropyl-6-oxo-1,6-dihydro-3-pyridazinyl)-4-phenyl-N-(2-pyridinylmethyl)-1,3-thiazole-2-carboxamide]	176.5 to 177.5 °C
CC(C)n1nc(-c2sc(C(=O)NCc3ccccn3)nc2-c2ccc(F)cc2)ccc1=O [Example 211, 4-(4-Fluorophenyl)-5-(1-isopropyl-6-oxo-1,6-dihydro-3-pyridazinyl)-N-(2-pyridinylmethyl)-1,3-thiazole-2-carboxamide]	203.5 to 205 °C
CNC(=O)c1nc(-c2ccccc2)c(-c2ccc(=O)n(C(C)C)n2)s1 [Example 212, 5-(1-isopropyl-6-oxo-1,6-dihydro-3-pyridazinyl)-N-methyl-4-phenyl-1,3-thiazole-2-carboxamide]	165 to 167.5 °C
CC(C)n1nc(-c2sc(C(=O)N(C)C)nc2-c2ccccc2)ccc1=O [Example 213, 5-(1-isopropyl-6-oxo-1,6-dihydro-3-pyridazinyl)-N,N-dimethyl-4-phenyl-1,3-thiazole-2-carboxamide]	141 to 144 °C
CCCCNC(=O)c1nc(-c2ccccc2)c(-c2ccc(=O)n(C(C)C)n2)s1 [Example 215, N-butyl-5-(1-isopropyl-6-oxo-1,6-dihydro-3-pyridazinyl)-4-phenyl-1,3-thiazole-2-carboxamide]	147.5 to 148.5 °C
CC(=O)NCCNC(=O)c1nc(-c2ccccc2)c(-c2ccc(=O)n(C(C)C)n2)s1 [Example 217, N-[2-(Acetylamino)ethyl]-5-(1-isopropyl-6-oxo-1,6-dihydro-3-pyridazinyl)-4-phenyl-1,3-thiazole-2-carboxamide]	170 to 171.5 °C
CC(C)n1nc(-c2sc(C(=O)N3CCCCC3)nc2-c2ccccc2)ccc1=O [Example 218, 2-Isopropyl-6-[4-phenyl-2-(1-piperidinylcarbonyl)-1,3-thiazol-5-yl]-3(2H)-pyridazinone]	111 to 112 °C
CC(=O)N1CCN(C(=O)c2nc(-c3ccccc3)c(-c3ccc(=O)n(C(C)C)n3)s2)CC1 [Example 219, 6-{2-[(4-Acetyl-1-piperazinyl)carbonyl]-4-phenyl-1,3-thiazol-5-yl}-2-isopropyl-3(2H)-pyridazinone]	78 to 82 °C
CC(C)n1nc(-c2sc(C(=O)NCc3ccccc3)nc2-c2ccccc2)ccc1=O [Example 220, N-Benzyl-5-(1-isopropyl-6-oxo-1,6-dihydro-3-pyridazinyl)-4-phenyl-1,3-thiazole-2-carboxamide]	186 to 187 °C
Cc1cnc(CNC(=O)c2nc(-c3ccc(F)cc3)c(-c3ccc(=O)n(C(C)C)n3)s2)cn1 [Example 221, 4-(4-Fluorophenyl)-5-(1-isopropyl-6-oxo-1,6-dihydro-3-pyridazinyl)-N-[(5-methyl-2-pyrazinyl)methyl]-1,3-thiazole-2-carboxamide]	187.5 to 188.5 °C
CC(C)n1nc(-c2sc(C(=O)NCC(N)=O)nc2-c2ccccc2)ccc1=O [Example 222, N-(2-amino-2-oxoethyl)-5-(1-isopropyl-6-oxo-1,6-dihydro-3-pyridazinyl)-4-phenyl-1,3-thiazole-2-carboxamide]	247.5 to 249 °C
